Reference: patent US20230113037A1 (Bayer Aktiengesellschaft, priority 2019, published 2023)
Like-named read-outs stand apart in the source and are kept apart here.

Tests used:
[1] = molecular target: T1, AHR (Homo sapiens, UniProt P35869); test: In vitro assay 1: antagonism in human cell line (AHR transactivation, firefly luciferase reporter, kynurenic acid prestimulated); type: cell-based; conditions: AHR Antagonism Human IC50 [M]
T1 construct: U87 MG glioblastoma cells (ATCC #HTB-14) endogenously expressing AHR; endogenous in cells; host or cells: U87 MG glioblastoma cells (ATCC #HTB-14)
T1 sequence (P35869 11-848): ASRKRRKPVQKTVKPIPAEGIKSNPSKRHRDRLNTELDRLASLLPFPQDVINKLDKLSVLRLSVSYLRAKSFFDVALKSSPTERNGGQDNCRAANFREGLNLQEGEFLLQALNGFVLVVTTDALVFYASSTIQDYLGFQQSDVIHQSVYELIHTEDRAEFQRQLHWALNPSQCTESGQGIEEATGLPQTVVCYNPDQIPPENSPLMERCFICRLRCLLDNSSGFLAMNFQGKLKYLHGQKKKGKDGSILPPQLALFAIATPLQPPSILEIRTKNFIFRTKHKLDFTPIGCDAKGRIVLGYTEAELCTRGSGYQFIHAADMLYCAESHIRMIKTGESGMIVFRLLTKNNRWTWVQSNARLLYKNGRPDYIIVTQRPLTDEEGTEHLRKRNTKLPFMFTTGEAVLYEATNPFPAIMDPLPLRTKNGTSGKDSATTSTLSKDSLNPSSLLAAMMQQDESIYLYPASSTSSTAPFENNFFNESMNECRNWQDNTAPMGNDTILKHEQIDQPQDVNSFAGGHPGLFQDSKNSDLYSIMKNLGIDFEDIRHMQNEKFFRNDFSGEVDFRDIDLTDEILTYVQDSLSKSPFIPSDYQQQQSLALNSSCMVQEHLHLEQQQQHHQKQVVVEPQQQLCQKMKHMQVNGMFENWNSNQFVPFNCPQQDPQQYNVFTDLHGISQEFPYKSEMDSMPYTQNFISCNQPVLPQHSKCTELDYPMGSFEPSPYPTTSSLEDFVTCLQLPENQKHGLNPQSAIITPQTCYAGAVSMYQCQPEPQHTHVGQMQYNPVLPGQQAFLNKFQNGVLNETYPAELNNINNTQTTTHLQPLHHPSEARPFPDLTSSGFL
Outline: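 Antagonism measured as loss of kynurenic acid-driven firefly luciferase from DRE reporter in stably transfected U87 MG cells; constitutive Renilla signal monitors cytotoxicity. Positive/negative control normalization, staurosporine 5 μM with 150 μM kynurenic acid as inhibition control; replicates given as mean or median.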

[2] = molecular target: T2, AHR (Mus musculus, UniProt P30561); test: In vitro assay 3: antagonism in mouse cell line (AHR transactivation, firefly luciferase reporter, kynurenic acid prestimulated); type: cell-based
T2 sequence (P30561 1-848 P471L/N533S/M589L): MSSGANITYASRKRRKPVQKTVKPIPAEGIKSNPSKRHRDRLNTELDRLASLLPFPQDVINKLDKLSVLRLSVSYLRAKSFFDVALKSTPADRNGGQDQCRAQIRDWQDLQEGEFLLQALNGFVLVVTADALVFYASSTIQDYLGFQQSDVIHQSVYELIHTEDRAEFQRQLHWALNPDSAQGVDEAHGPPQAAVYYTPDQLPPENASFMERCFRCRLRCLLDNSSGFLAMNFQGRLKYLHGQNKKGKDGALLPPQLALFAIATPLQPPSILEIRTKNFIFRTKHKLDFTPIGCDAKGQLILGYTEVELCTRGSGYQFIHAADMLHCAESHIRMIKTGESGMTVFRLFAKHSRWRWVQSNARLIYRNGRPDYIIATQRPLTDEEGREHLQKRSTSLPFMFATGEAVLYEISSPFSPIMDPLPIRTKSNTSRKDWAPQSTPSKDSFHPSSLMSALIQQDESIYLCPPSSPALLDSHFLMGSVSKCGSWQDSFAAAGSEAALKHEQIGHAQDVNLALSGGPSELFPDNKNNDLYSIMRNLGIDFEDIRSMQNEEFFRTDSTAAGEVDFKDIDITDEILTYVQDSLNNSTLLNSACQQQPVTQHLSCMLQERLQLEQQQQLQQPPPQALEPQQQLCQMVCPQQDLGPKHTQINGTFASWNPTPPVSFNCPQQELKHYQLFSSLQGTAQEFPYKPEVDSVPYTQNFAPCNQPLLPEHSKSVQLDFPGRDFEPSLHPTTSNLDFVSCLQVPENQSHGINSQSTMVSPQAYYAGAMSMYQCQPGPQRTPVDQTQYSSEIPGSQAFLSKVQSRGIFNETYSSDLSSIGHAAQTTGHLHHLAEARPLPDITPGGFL
Outline: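 Kynurenic acid-prestimulated mouse reporter cells; stable AHR-inducible firefly luc construct with DRE sites in promoter. No-agonist wells = positive inhibition ctrl. Luminescence normalized to pos/neg ctrls; n>1 reported as mean or median.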

[3] = mouse Hepa 1c1c7 cells, 200 μM kynurenic acid, 20 hours, read-out: AHR Antagonism Mouse IC50

Row | SMILES | IC50 [1] [M] | IC50 [2, 3] [nM] | IC50 ([2]; read-out: AHR Antagonism Mouse IC50, mouse Hepa 1c1c7 cells, 200 μM kynurenic acid, 20 hours) [nM]
1 | CN(C)c1ccc(-c2nc3c4ccccc4nc(N[C@@H]4CCCCNC4=O)n3n2)cc1 [Example 128, (3R)-3-({2-[4-(dimethylamino)phenyl][1,2,4]triazolo[1,5-c]quinazolin-5-yl}amino)azepan-2-one] | 1.5e-09 | 0.316 | –
2 | O=C1NCCCC[C@H]1Nc1nc2ccccc2c2nc(-c3ccco3)nn12 [Example 130, (3R)-3-{[2-(furan-2-yl)[1,2,4]triazolo[1,5-c]quinazolin-5-yl]amino}azepan-2-one] | 4.55e-09 | 5.82 | –
3 | Cc1noc(-c2nc3c4ccccc4nc(N[C@@H]4CCCCNC4=O)n3n2)n1 [Example 131, (3R)-3-{[2-(3-methyl-1,2,4-oxadiazol-5-yl)[1,2,4]triazolo[1,5-c]quinazolin-5-yl]amino}azepan-2-one] | 1.79e-07 | 93.8 | –
4 | CCc1noc(-c2nc3c4ccccc4nc(N[C@@H]4CCCCNC4=O)n3n2)n1 [Example 132, (3R)-3-{[2-(3-ethyl-1,2,4-oxadiazol-5-yl)[1,2,4]triazolo[1,5-c]quinazolin-5-yl]amino}azepan-2-one] | 2.15e-08 | 26.3 | –
5 | CC(C)c1noc(-c2nc3c4ccccc4nc(N[C@@H]4CCCCNC4=O)n3n2)n1 [Example 133, (3R)-3-({2-[3-(propan-2-yl)-1,2,4-oxadiazol-5-yl][1,2,4]triazolo[1,5-c]quinazolin-5-yl}amino)azepan-2-one] | 1.92e-08 | 32.7 | –
6 | CC(C)(C)c1noc(-c2nc3c4ccccc4nc(N[C@@H]4CCCCNC4=O)n3n2)n1 [Example 134, (3R)-3-{[2-(3-tert-butyl-1,2,4-oxadiazol-5-yl)[1,2,4]triazolo[1,5-c]quinazolin-5-yl]amino}azepan-2-one] | 8.35e-08 | 86.8 | –
7 | O=C1NCCCC[C@H]1Nc1nc2ccccc2c2nc(-c3nc(C4CC4)no3)nn12 [Example 135, (3R)-3-{[2-(3-cyclopropyl-1,2,4-oxadiazol-5-yl)[1,2,4]triazolo[1,5-c]quinazolin-5-yl]amino}azepan-2-one] | 2.77e-08 | 20.5 | –
8 | O=C1NCCCC[C@H]1Nc1nc2ccccc2c2nc(-c3nc(C(F)(F)F)no3)nn12 [Example 136, (3R)-3-({2-[3-(trifluoromethyl)-1,2,4-oxadiazol-5-yl][1,2,4]triazolo[1,5-c]quinazolin-5-yl}amino)azepan-2-one] | 3.09e-08 | 9.58 | –
9 | O=C1NCCCC[C@H]1Nc1nc2c(F)cccc2c2nc(-c3cccc(F)c3)nn12 [Example 137, (3R)-3-{[7-fluoro-2-(3-fluorophenyl)[1,2,4]triazolo[1,5-c]quinazolin-5-yl]amino}azepan-2-one] | 2.16e-09 | – | 0.823
10 | COc1ccc(-c2nc3c4ccc(F)cc4nc(N[C@@H]4CCCCNC4=O)n3n2)cc1 [Example 153, (3R)-3-{[8-fluoro-2-(4-methoxyphenyl)[1,2,4]triazolo[1,5-c]quinazolin-5-yl]amino}azepan-2-one] | 4.35e-10 | 1.18 | –
11 | Cc1ccc2nc(N[C@@H]3CCCCNC3=O)n3nc(-c4cnn(C)c4)nc3c2c1 [Example 158, (3R)-3-{[9-methyl-2-(1-methyl-1H-pyrazol-4-yl)[1,2,4]triazolo[1,5-c]quinazolin-5-yl]amino}azepan-2-one] | 1.77e-08 | 32.2 | –

Second part, led by results:

Row | IC50 [1] [M] | IC50 [2, 3] [nM] | SMILES | IC50 ([2]; read-out: AHR Antagonism Mouse IC50, mouse Hepa 1c1c7 cells, 200 μM kynurenic acid, 20 hours) [nM]
12 | 7.41e-10 | 1.45 | COc1ccc(-c2nc3c4cccc(F)c4nc(N[C@@H]4CCCCNC4=O)n3n2)cc1 [Example 138, (3R)-3-{[7-fluoro-2-(4-methoxyphenyl)[1,2,4]triazolo[1,5-c]quinazolin-5-yl]amino}azepan-2-one] | –
13 | 1.09e-09 | 1.08 | COc1cccc(-c2nc3c4cccc(C)c4nc(N[C@@H]4CCCCNC4=O)n3n2)c1 [Example 140, (3R)-3-{[2-(3-methoxyphenyl)-7-methyl[1,2,4]triazolo[1,5-c]quinazolin-5-yl]amino}azepan-2-one] | –
14 | 2.84e-08 | 83.2 | COc1cccc(-c2nc3c4cccc(C)c4nc(N[C@H]4CCCCNC4=O)n3n2)c1 [Example 141] | –
15 | 2.15e-09 | 21.1 | Cc1cccc2c1nc(N[C@@H]1CCCCNC1=O)n1nc(-c3cnn(C)c3)nc21 [Example 142, (3R)-3-{[7-methyl-2-(1-methyl-1H-pyrazol-4-yl)[1,2,4]triazolo[1,5-c]quinazolin-5-yl]amino}azepan-2-one] | –
16 | 2.42e-10 | 0.884 | COc1ccc(-c2nc3c4cccc(C)c4nc(N[C@@H]4CCCCNC4=O)n3n2)cc1 [Example 143] | –
17 | > 2e-06 | 62.7 | COc1ccc(-c2nc3c4cccc(C)c4nc(N[C@H]4CCCCNC4=O)n3n2)cc1 [Example 144] | –
18 | 8.12e-07 | 2.41 | COc1cccc(-c2nc3c4ccc(F)cc4nc(N[C@@H]4CCCCNC4=O)n3n2)c1 [Example 148, (3R)-3-{[8-fluoro-2-(3-methoxyphenyl)[1,2,4]triazolo[1,5-c]quinazolin-5-yl]amino}azepan-2-one] | –
19 | 1.97e-07 | 48.8 | COc1cccc(-c2nc3c4ccc(F)cc4nc(N[C@H]4CCCCNC4=O)n3n2)c1 [Example 150, (3S)-3-{[8-fluoro-2-(3-methoxyphenyl)[1,2,4]triazolo[1,5-c]quinazolin-5-yl]amino}azepan-2-one] | –
20 | 2.36e-06 | 343 | COc1cccc(-c2nc3c4ccc(F)cc4nc(N[C@H]4CCCNC4=O)n3n2)c1 [Example 151, (3S)-3-{[8-fluoro-2-(3-methoxyphenyl)[1,2,4]triazolo[1,5-c]quinazolin-5-yl]amino}piperidin-2-one] | –
21 | 5.28e-08 | 353 | COc1cccc(-c2nc3c4ccc(F)cc4nc(N[C@@H]4CCNC4=O)n3n2)c1 [Example 152, (3R)-3-{[8-fluoro-2-(3-methoxyphenyl)[1,2,4]triazolo[1,5-c]quinazolin-5-yl]amino}pyrrolidin-2-one] | –
22 | 2.18e-09 | 1.16 | COc1cccc(-c2nc3c4cc(C)ccc4nc(N[C@@H]4CCCCNC4=O)n3n2)c1 [Example 154, (3R)-3-{[2-(3-methoxyphenyl)-9-methyl[1,2,4]triazolo[1,5-c]quinazolin-5-yl]amino}azepan-2-one] | –
23 | 1.03e-09 | 0.227 | COc1cccc(-c2nc3c4cc(F)ccc4nc(N[C@@H]4CCCCNC4=O)n3n2)c1 [Example 159, (3R)-3-{[9-fluoro-2-(3-methoxyphenyl)[1,2,4]triazolo[1,5-c]quinazolin-5-yl]amino}azepan-2-one] | –
24 | 1.43e-07 | 15.4 | COc1cccc(-c2nc3c4cc(F)ccc4nc(N[C@H]4CCCCNC4=O)n3n2)c1 [Example 160, (3S)-3-{[9-fluoro-2-(3-methoxyphenyl)[1,2,4]triazolo[1,5-c]quinazolin-5-yl]amino}azepan-2-one] | –
25 | 2.23e-08 | 25.5 | COc1cccc(-c2nc3c4cc(F)ccc4nc(NC4CCNC4=O)n3n2)c1 (centres unmarked) [Example 162, 3-{[9-fluoro-2-(3-methoxyphenyl)[1,2,4]triazolo[1,5-c]quinazolin-5-yl]amino}pyrrolidin-2-one] | –
